Measurements as given in patent publication US20230106032A1, “IMIDAZOTRIAZINES ACTING ON CANCER VIA INHIBITION OF CDK12” (Bayer Aktiengesellschaft, priority 2020, published 2023).

Legend:
CDK9/CycT1 = molecular target: T1, CDK9/CycT1 (Homo sapiens, UniProt P50750); experiment: CDK9/CycT1 high ATP kinase assay (TR-FRET, 2 mM ATP); assay type: biochemical; settings: read-out: CDK9/CyclinT1, 2 mM ATP (high ATP) IC50-[mol/l] (median)
T1 construct: Recombinant full-length His-tagged human CDK9 and CycT1, expressed in insect cells; His; purchased Life Technologies PV4131; host or cells: insect cells
T1 sequence (P50750 whole entry): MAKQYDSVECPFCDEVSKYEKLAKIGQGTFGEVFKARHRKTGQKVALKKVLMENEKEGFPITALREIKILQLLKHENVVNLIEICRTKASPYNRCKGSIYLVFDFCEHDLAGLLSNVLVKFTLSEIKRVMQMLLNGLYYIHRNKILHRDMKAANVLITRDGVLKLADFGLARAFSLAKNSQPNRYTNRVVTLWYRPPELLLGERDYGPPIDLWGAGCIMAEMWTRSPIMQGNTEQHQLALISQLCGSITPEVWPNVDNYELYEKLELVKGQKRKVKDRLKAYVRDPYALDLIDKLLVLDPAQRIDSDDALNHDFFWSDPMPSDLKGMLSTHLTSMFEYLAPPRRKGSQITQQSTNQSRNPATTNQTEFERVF
T1 sequence (O60563 whole entry partner): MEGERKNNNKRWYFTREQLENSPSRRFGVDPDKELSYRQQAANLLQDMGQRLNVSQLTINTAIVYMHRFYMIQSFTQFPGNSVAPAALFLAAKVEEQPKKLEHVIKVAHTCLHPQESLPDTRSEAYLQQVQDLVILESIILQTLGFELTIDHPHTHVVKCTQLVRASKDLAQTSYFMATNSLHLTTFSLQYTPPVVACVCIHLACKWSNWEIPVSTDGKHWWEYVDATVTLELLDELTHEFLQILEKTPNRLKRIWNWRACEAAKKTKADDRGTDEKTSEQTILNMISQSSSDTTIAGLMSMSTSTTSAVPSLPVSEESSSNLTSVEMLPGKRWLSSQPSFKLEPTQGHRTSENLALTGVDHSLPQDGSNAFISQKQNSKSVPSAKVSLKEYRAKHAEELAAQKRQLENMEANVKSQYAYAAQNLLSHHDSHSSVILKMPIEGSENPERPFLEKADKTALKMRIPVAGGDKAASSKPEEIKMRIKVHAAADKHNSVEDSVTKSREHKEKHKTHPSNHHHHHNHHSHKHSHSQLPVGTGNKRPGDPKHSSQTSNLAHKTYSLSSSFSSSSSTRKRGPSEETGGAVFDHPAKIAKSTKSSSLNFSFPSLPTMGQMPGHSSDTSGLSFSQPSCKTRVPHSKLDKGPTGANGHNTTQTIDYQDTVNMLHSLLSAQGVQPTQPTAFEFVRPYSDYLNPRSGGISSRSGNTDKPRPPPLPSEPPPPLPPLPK
Method: CDK9/CycT1-inhibitory activity of compounds of the present invention at a high ATP concentration after preincubation of enzyme and test compounds was quantified employing the CDK9/CycT1 TR-FRET assay as described in the following paragraphs.
Recombinant full-length His-tagged human CDK9 and CycT1, expressed in insect cells and purified by Ni-NTA affinity chromatography, were purchased from Life Technologies (Cat. No PV4131). As substrate for the kinase reaction biotinylated peptide biotin-Ttds-YISPLKSPYKISEG (C-terminus in amide form) was used which can be purchased e.g. form the company JERINI peptide technologies (Berlin, Germany).
For the assay 50 nanoL of a 100 fold concentrated solution of the test compound in DMSO was pipetted into either a black low volume 384 well microtiter plate or a black 1536 well microtiter plate (both Greiner Bio-One, Frickenhausen, Germany), 2 microL of a solution of CDK9/CycT1 in aqueous assay buffer [50 millimol/L Tris/HCl pH 8.0, 10 millimol/L MgCl2, 1.0 millimol/L dithiothreitol, 0.1 millimol/L sodium ortho-vanadate, 0.01% (v/v) Nonidet-P40 (Sigma)] were added and the mixture was incubated for 15 min at 22° C. to allow pre-binding of the test compounds to the enzyme before the start of the kinase reaction. Then the kinase reaction was started by the addition of 3 microL of a solution of adenosine-tri-phosphate (ATP, 3.3 millimol/L=> final conc. in the 5 microL assay volume is 2 millimol/L) and substrate (1.25 micromol/L=> final conc. in the 5 microL assay volume is 0.75 micromol/L) in assay buffer and the resulting mixture was incubated for a reaction time of 25 min at 22° C. The concentration of CDK9/CycT1 was adjusted depending of the activity of the enzyme lot and was chosen appropriate to have the assay in the linear range, typical concentrations were in the range of 0.5 microg/ml. The reaction was stopped by the addition of 3 microL of a solution of TR-FRET detection reagents (0.33 micromol/L streptavidine-XL665 [Cisbio Bioassays, Codolet, France] and 1.67 nanomol/L anti-RB(pSer807/pSer8l 1)-antibody from BD Pharmingen [#558389] and 2 nanomol/L LANCE EU-W1024 labeled anti-mouse IgG antibody [Perkin-Elmer, product no. AD0077]) in an aqueous EDTA-solution (167 millimol/L EDTA, 0.2% (w/v) bovine serum albumin in 100 millimol/L HEPES pH 7.5).
The resulting mixture was incubated 1 h at 22° C. to allow the formation of complex between the phosphorylated biotinylated peptide and the detection reagents. Subsequently the amount of phosphorylated substrate was evaluated by measurement of the resonance energy transfer from the Eu-chelate to the streptavidine-XL. Therefore, the fluorescence emissions at 620 nm and 665 nm after excitation at 350 nm was measured in a TR-FRET reader, e.g. a Pherastar (BMG Labtechnologies, Offenburg, Germany) or a Viewlux (Perkin-Elmer). The ratio of the emissions at 665 nm and at […] was taken as the measure for the amount of phosphorylated substrate. The data were normalised (enzyme reaction without inhibitor=0% inhibition, all other assay components but no enzyme=100% inhibition).

[1] = test system: CAL-120 human breast adenocarcinoma cells; experiment: Proliferation assay CAL-120 (crystal violet); assay type: cell-based; settings: 96 h, CAL-120 cells, 4 days, read-out: Prolif-CAL-120_ IC50-[mol/l] (median)
Method: Human tumour cells were originally obtained from the American Type Culture Collection (ATCC), or from the Deutsche Sammlung von Mikroorganismen und Zellkulturen (DSMZ, German Collection of Microorganisms and Cell Cultures). Cultivated tumour cells (CAL-120, human breast adenocarcinoma cells, DSMZ ACC-459; MDA-MB-231, human breast cancer cells, ATCC HTB-26) were plated at a density of 4,000 cells/well in a 96-well multititer plate in 200 microL of their respective growth medium supplemented 10% fetal calf serum. After 24 hours, the cells of one plate (zero-point plate) were stained with crystal violet (see below), while the medium of the other plates was supplemented with the test substances in various concentrations (0 micromol/L, as well as in the range of 0.01-10 micromol/L; the final concentration of the solvent dimethyl sulfoxide was adjusted to 0.1%) using a Tecan HP D300 Digital Dispenser. The cells were incubated for 4 days in the presence of test substances. Cell proliferation was determined by staining the cells with crystal violet: the cells were fixed by adding 20 microL/measuring point of an 11% glutaric aldehyde solution for 15 minutes at room temperature. After three washing cycles of the fixed cells with water, the plates were dried at room temperature. The cells were stained by adding 100 microL/measuring point of a 0.1% crystal violet solution (pH 3.0). After three washing cycles of the stained cells with water, the plates were dried at room temperature. The dye was dissolved by adding 100 microL/measuring point of a 10% acetic acid solution. The extinction was determined by photometry at a wavelength of 595 nm. The change of cell number, in percent, was calculated by normalization of the measured values to the extinction values of the zero-point plate (=0%) and the extinction of the untreated (0 μM) cells (=100%). The IC50 values (inhibitory concentration at 50% of maximal effect) were determined by means of a 4 parameter fit.

| Compound | IC50 (CDK9/CycT1) | IC50 [1] |
| --- | --- | --- |
| N#Cc1cnc2c(NCc3nc4ccccc4[nH]3)nc(N3CCOCC3)nn12 [Example 2, 4-{[(1H-benzimidazol-2-yl)methyl]amino}-2-(morpholin-4-yl)imidazo[2,1-f][1,2,4]triazine-7-carbonitrile] | > 20 µM | 0.103 µM |
| Fc1cccc(-c2cnc3c(NCc4nc5ccccc5[nH]4)nc(N4CCOCC4)nn23)c1 [Example 3, N-[(1H-benzimidazol-2-yl)methyl]-7-(3-fluorophenyl)-2-(morpholin-4-yl)imidazo[2,1-f][1,2,4]triazin-4-amine] | > 20 µM |  |
| C[C@@H]1CN(c2nc(NCc3nc4ccccc4[nH]3)c3ncc(Br)n3n2)C[C@H](C)O1 [Example 4, N-[(1H-benzimidazol-2-yl)methyl]-7-bromo-2-[rel-(2R,6S)-2,6-dimethylmorpholin-4-yl]imidazo[2,1-f][1,2,4]triazin-4-amine] | 17.7 µM | 0.0538 µM |
| C[C@@H]1CN(c2nc(NCc3nc4c(F)c(F)ccc4[nH]3)c3ncc(Br)n3n2)C[C@H](C)O1 [Example 5, 7-bromo-N-[(4,5-difluoro-1H-benzimidazol-2-yl)methyl]-2-[rel-(2R,6S)-2,6-dimethylmorpholin-4-yl]imidazo[2,1-f][1,2,4]triazin-4-amine] | 3.47 µM | 0.00797 µM |
| CN1CCN(c2nc(NCc3nc4ccccc4[nH]3)c3ncc(Br)n3n2)CC1 [Example 6, N-[(1H-benzimidazol-2-yl)methyl]-7-bromo-2-(4-methylpiperazin-1-yl)imidazo[2,1-f][1,2,4]triazin-4-amine] | > 20 µM | 0.0614 µM |
| Brc1cnc2c(NCc3nc4ccccc4[nH]3)nc(N3CCNCC3)nn12 [Example 8, N-[(1H-benzimidazol-2-yl)methyl]-7-bromo-2-(piperazin-1-yl)imidazo[2,1-f][1,2,4]triazin-4-amine] | > 20 µM | 0.00325 µM |
| C[C@@H]1CN(c2nc(NCc3nc4ccccc4[nH]3)c3ncc(Br)n3n2)C[C@H](C)N1 [Example 9, N-[(1H-benzimidazol-2-yl)methyl]-7-bromo-2-[rel-(3R,5S)-3,5-dimethylpiperazin-1-yl]imidazo[2,1-f][1,2,4]triazin-4-amine] | > 20 µM | 0.00204 µM |
| Fc1ccc2[nH]c(CNc3nc(N4CCNCC4)nn4c(Br)cnc34)nc2c1F [Example 10, 7-bromo-N-[(4,5-difluoro-1H-benzimidazol-2-yl)methyl]-2-(piperazin-1-yl)imidazo[2,1-f][1,2,4]triazin-4-amine] | 12.4 µM | 0.000859 µM |
| C[C@@H]1CN(c2nc(NCc3nc4c(F)c(F)ccc4[nH]3)c3ncc(Br)n3n2)C[C@H](C)N1 [Example 11, 7-bromo-N-[(4,5-difluoro-1H-benzimidazol-2-yl)methyl]-2-[rel-(3R,5S)-3,5-dimethylpiperazin-1-yl]imidazo[2,1-f][1,2,4]triazin-4-amine] | 10.8 µM | 0.000381 µM |

Second part, the molecule after the results:

| IC50 (CDK9/CycT1) | IC50 [1] | Compound |
| --- | --- | --- |
| > 20 µM |  | Brc1cnc2c(NCc3nc4ccccc4[nH]3)nc(N3CCOCC3)nn12 [Example 1, N-[(1H-benzimidazol-2-yl)methyl]-7-bromo-2-(morpholin-4-yl)imidazo[2,1-f][1,2,4]triazin-4-amine] |
| 9.06 µM | 0.00844 µM | Fc1ccc2[nH]c(CNc3nc(N4CCOCC4)nn4c(Br)cnc34)nc2c1F [Example 7, 7-bromo-N-[(4,5-difluoro-1H-benzimidazol-2-yl)methyl]-2-(morpholin-4-yl)imidazo[2,1-f][1,2,4]triazin-4-amine] |
| > 20 µM | 0.0496 µM | Fc1cccc2[nH]c(CNc3nc(N4CCOCC4)nn4c(Br)cnc34)nc12 [Example 12, 7-bromo-N-[(4-fluoro-1H-benzimidazol-2-yl)methyl]-2-(morpholin-4-yl)imidazo[2,1-f][1,2,4]triazin-4-amine] |
| > 18.9 µM | 0.0123 µM | COc1cccc2[nH]c(CNc3nc(N4CCOCC4)nn4c(Br)cnc34)nc12 [Example 13, 7-bromo-N-[(4-methoxy-1H-benzimidazol-2-yl)methyl]-2-(morpholin-4-yl)imidazo[2,1-f][1,2,4]triazin-4-amine] |
